Assay results published in patent EP4772530A1, “PEPTIDE TARGETING SOMATOSTATIN RECEPTOR, DRUG CONJUGATE AND USE THEREOF” (Mainline Biosciences (Shanghai) Co., Ltd., priority 2023, dated 2025).

Molecular target: T1, SSTR2 (Homo sapiens, UniProt P30874)
T1 construct: expressed in transfected cells; host or cells: CHO cells (SSTR2/CHO)
Test: SSTR2 cAMP test
Assay type: cell-based
Conditions: Max Dose 50000 nM
In short: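 SSTR2-expressing CHO cells were stimulated with forskolin (100 µM stock) in the presence of 10 compound concentrations from 4-fold dilutions. cAMP detected as the 665/615 nm ratio, normalised to high and low controls. EC50 from log(agonist) vs. response variable-slope fit.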

T1 sequence (P30874 whole entry): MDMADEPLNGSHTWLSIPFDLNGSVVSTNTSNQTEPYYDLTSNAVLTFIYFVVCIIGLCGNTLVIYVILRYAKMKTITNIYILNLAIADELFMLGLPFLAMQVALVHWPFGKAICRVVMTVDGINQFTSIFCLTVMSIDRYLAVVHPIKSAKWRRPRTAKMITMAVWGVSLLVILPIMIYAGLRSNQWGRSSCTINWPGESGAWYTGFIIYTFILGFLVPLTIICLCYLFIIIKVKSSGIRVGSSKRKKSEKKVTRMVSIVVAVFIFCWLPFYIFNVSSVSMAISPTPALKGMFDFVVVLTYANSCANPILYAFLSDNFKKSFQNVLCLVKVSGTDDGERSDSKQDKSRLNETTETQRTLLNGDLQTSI

CC[C@H](C)[C@@H]([C@@H](CC(=O)N1CCC[C@H]1[C@H](OC)[C@@H](C)C(=O)N[C@H](C)[C@@H](O)c1ccccc1)OC)N(C)C(=O)[C@@H](NC(=O)[C@H](C(C)C)N(C)C(=O)OCc1ccc(NC(=O)[C@H](CCCNC(N)=O)NC(=O)[C@@H](NC(=O)CCCCCN2C(=O)CC(SC[C@H](NC(C)=O)C(=O)NCCOCCOCC(=O)N[C@@H](CCCNC(=N)N)C(=O)N[C@@H](CCCNC(=N)N)C(=O)N[C@@H](CC(C)C)C(=O)N[C@@H](Cc3ccccc3)C(=O)N[C@H]3CSSC[C@@H](C(=O)N[C@H](C(=O)N[C@@H](Cc4c[nH]c5ccccc45)C(=O)N[C@@H](CCCNC(=N)N)C(=O)N[C@@H](CC(=O)O)C(N)=O)[C@@H](C)O)NC(=O)[C@H]([C@@H](C)O)NC(=O)[C@H](CCCCN)NC(=O)[C@@H](Cc4c[nH]c5ccccc45)NC(=O)[C@H](Cc4ccc(O)cc4)NC3=O)C2=O)C(C)C)cc1)C(C)C (stereo partly drawn) [Example 1, Cys(MC-Val-Cit-PABC-MMAE)-AEEA-Arg-Arg-Leu-Phe-[Cys-Tyr-D-Trp-Lys-Thr-Cys]-Thr-Trp-Arg-Asp-NH2] was tested, and the activity at 50 µM was 93.9%.
